# From PubChem BioAssay (NCI)
# “And” between values parts separate entries of the source, which are not always exact repeats. Equal entries are not always repeated.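 1) Cells in 96-well plates. 2) Compound, 48 h, 5 concentrations. 3) Linear interpolation between surrounding doses. 4) Unreached endpoint = highest concentration. GI50: concentration for 50% inhibition of growth. TGI denotes the concentration required for complete inhibition of growth.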
# Tested on: SW-620 colon
# Assay: NCI anticancer screen, dose series, 48 h
SMILES,TGI,GI50
O=C1CC[C@H]2CNC(=O)C[C@H]2C1,> 100 µM,
O=[N+]([O-])c1ccc(NSc2ccccc2)cc1,> 100 µM,
CCCNC(=O)OCc1c(COC(=O)NCCC)c(-c2ccc(Cl)c(Cl)c2)n2c1CCC2,20.6 µM,
O=C(O)/C=C/C(=O)Nc1ncn[nH]1,> 100 µM,
Cc1cccc2c3ccc4c(c3n(C)c12)C(=O)C=CC4=O,> 100 µM,
COc1ccc(N=Cc2cc(OC)c(OC)c(OC)c2)cc1,30 µM,
CN(C)CCNC(=O)c1cccc2nc3c(Cl)cccc3nc12,> 40.4 µM,
COc1nc2c(cc1S(=O)(=O)c1ccccc1)CCc1c-2cnn1-c1ccccc1Cl,> 100 µM,> 100 µM
C[C@]12CCC(=O)C=C1CC[C@@H]1C2CC[C@]2(C)NC(=O)C(C#N)CC12 (stereo partly specified),> 100 µM,
O=S(=O)(O)C(O)/C=C/c1ccccc1 (stereo unspecified),> 100 µM,
C/C(=N\NC(N)=S)c1ccc(C)cc1C,> 100 µM,
OCc1c(-c2cccc3ccccc23)sc(-c2cccc3ccccc23)c1CO,29.2 µM,
CC1=CCCC(OC(N)=O)C1 (stereo unspecified),> 100 µM,
COc1cc2c(cc1O)[C@H](Cc1ccc(Oc3cc(C[C@H]4c5cc(OC)c(OC)cc5CCN4C)ccc3OC)cc1)NCC2,25.5 µM,
Cc1c(C(=O)/C=C/c2cccc3ccccc23)[n+](=O)c2ccccc2n1[O-],22.7 µM,
Cc1nc2nnc(C)n2c2c1C(=O)Nc1ccccc1N2,> 100 µM,

SMILES,TGI,GI50
CC1=C[C@@H]2Cc3occc3C(C)(C)[C@@H]2CC1,31.8 µM,
CCCCCCCCCCCCCCC1OC(=O)c2ccccc21 (stereo unspecified),> 100 µM,
COC(=O)C(CC(=O)c1cc2c(cc1I)OCO2)Cc1cc(OC)c(OC)c(OC)c1I (stereo unspecified),> 100 µM,
COC(=O)c1c(OC)cccc1C(=O)O,> 100 µM,
O=C(O)Cc1c[nH]c2ccc(F)cc12,> 100 µM,
O=C1c2ccccc2-c2c1c1cc3c(cc1c(=O)n2CCCCl)OCO3,> 100 µM,94.5 µM
NC1(CCCCCCCCCCC(=O)O)CNCCNCCNCCNC1,> 100 µM,
COc1ccc(CNC(=O)COc2ccc(/C=N/Nc3nc4ccccc4s3)cc2)cc1,> 100 µM,5.23 µM
CCCCn1/c(=N/C(=S)N(C)C)ss/c1=N\C(=S)N(C)C,> 100 µM,
CN(C)CCNc1nc2ccccc2c2[nH]c3ccccc3c12,19.7 µM,0.764 µM
CNC(=O)c1cc(Oc2ccc3c(c2)sc2nc(-c4ccc(N)cc4)cn23)ccn1,> 100 µM,0.153 µM
Clc1cccc(NC=Nc2ccc(-c3nc4ccccc4s3)cc2)c1,> 50 µM,16.7 µM
CCC1CCC2CCCC(C)N12 (stereo unspecified),> 100 µM,
O=C(O)CCCc1ccc(N(CCCl)CCCl)cc1,51.4 µM and 356 µM and 399 µM,13.8 µM and 107 µM
CC1CCC[P+](Cc2ccccc2)(c2ccccc2)CC1 (stereo unspecified),> 100 µM,

# Tested on: NCI-H460 lung
# Assay: NCI anticancer screen, dose series, 48 h
SMILES,TGI,GI50 [µM]
O=C1CC[C@H]2CNC(=O)C[C@H]2C1,> 100 µM,
O=[N+]([O-])c1ccc(NSc2ccccc2)cc1,> 100 µM,
CCCNC(=O)OCc1c(COC(=O)NCCC)c(-c2ccc(Cl)c(Cl)c2)n2c1CCC2,17.2 µM,
O=C(O)/C=C/C(=O)Nc1ncn[nH]1,> 100 µM,
COc1ccc(N=Cc2cc(OC)c(OC)c(OC)c2)cc1,> 100 µM,
COc1nc2c(cc1S(=O)(=O)c1ccccc1)CCc1c-2cnn1-c1ccccc1Cl,> 100 µM,26.3
C[C@]12CCC(=O)C=C1CC[C@@H]1C2CC[C@]2(C)NC(=O)C(C#N)CC12 (stereo partly specified),> 100 µM,
C/C(=N\NC(N)=S)c1ccc(C)cc1C,> 100 µM,
OCc1c(-c2cccc3ccccc23)sc(-c2cccc3ccccc23)c1CO,34.7 µM,
CC1=CCCC(OC(N)=O)C1 (stereo unspecified),> 100 µM,
COc1cc2c(cc1O)[C@H](Cc1ccc(Oc3cc(C[C@H]4c5cc(OC)c(OC)cc5CCN4C)ccc3OC)cc1)NCC2,27.7 µM,
Cc1c(C(=O)/C=C/c2cccc3ccccc23)[n+](=O)c2ccccc2n1[O-],32.5 µM,
Cc1nc2nnc(C)n2c2c1C(=O)Nc1ccccc1N2,> 100 µM,
CCCCCCCCCCCCCCC1OC(=O)c2ccccc21 (stereo unspecified),> 100 µM,
COC(=O)C(CC(=O)c1cc2c(cc1I)OCO2)Cc1cc(OC)c(OC)c(OC)c1I (stereo unspecified),> 100 µM,
COC(=O)c1c(OC)cccc1C(=O)O,> 100 µM,
O=C(O)Cc1c[nH]c2ccc(F)cc12,> 100 µM,
O=C1c2ccccc2-c2c1c1cc3c(cc1c(=O)n2CCCCl)OCO3,> 100 µM,97.1
NC1(CCCCCCCCCCC(=O)O)CNCCNCCNCCNC1,86.4 µM,
C#CC(C)(C)Oc1cc(O)c2c(=O)c3ccccc3n(C)c2c1,> 100 µM,
COc1ccc(CNC(=O)COc2ccc(/C=N/Nc3nc4ccccc4s3)cc2)cc1,7.3 µM,2.65
CCCCn1/c(=N/C(=S)N(C)C)ss/c1=N\C(=S)N(C)C,> 100 µM,
CN(C)CCNc1nc2ccccc2c2[nH]c3ccccc3c12,1.97 µM,0.244
CNC(=O)c1cc(Oc2ccc3c(c2)sc2nc(-c4ccc(N)cc4)cn23)ccn1,20.6 µM,0.289
Clc1cccc(NC=Nc2ccc(-c3nc4ccccc4s3)cc2)c1,23.3 µM,9.44
O=C(O)CCCc1ccc(N(CCCl)CCCl)cc1,44.5 µM and 228 µM,2.13
CC1CCC[P+](Cc2ccccc2)(c2ccccc2)CC1 (stereo unspecified),> 100 µM,

# Tested on: SK-MEL-28 melanoma
# Assay: NCI anticancer screen, dose series, 48 h
SMILES,TGI,GI50 [µM]
O=C1CC[C@H]2CNC(=O)C[C@H]2C1,> 100 µM,
O=[N+]([O-])c1ccc(NSc2ccccc2)cc1,> 100 µM,
O=C(O)/C=C/C(=O)Nc1ncn[nH]1,> 100 µM,
Cc1cccc2c3ccc4c(c3n(C)c12)C(=O)C=CC4=O,> 100 µM,
COc1ccc(N=Cc2cc(OC)c(OC)c(OC)c2)cc1,> 100 µM,
CN(C)CCNC(=O)c1cccc2nc3c(Cl)cccc3nc12,15.9 µM,
COc1nc2c(cc1S(=O)(=O)c1ccccc1)CCc1c-2cnn1-c1ccccc1Cl,> 100 µM,> 100
C[C@]12CCC(=O)C=C1CC[C@@H]1C2CC[C@]2(C)NC(=O)C(C#N)CC12 (stereo partly specified),> 100 µM,
O=S(=O)(O)C(O)/C=C/c1ccccc1 (stereo unspecified),> 100 µM,
OCc1c(-c2cccc3ccccc23)sc(-c2cccc3ccccc23)c1CO,23.3 µM,
COc1cc2c(cc1O)[C@H](Cc1ccc(Oc3cc(C[C@H]4c5cc(OC)c(OC)cc5CCN4C)ccc3OC)cc1)NCC2,30.8 µM,
Cc1c(C(=O)/C=C/c2cccc3ccccc23)[n+](=O)c2ccccc2n1[O-],26.6 µM,
Cc1nc2nnc(C)n2c2c1C(=O)Nc1ccccc1N2,> 100 µM,
CC1=C[C@@H]2Cc3occc3C(C)(C)[C@@H]2CC1,49.5 µM,
CCCCCCCCCCCCCCC1OC(=O)c2ccccc21 (stereo unspecified),> 100 µM,
COC(=O)C(CC(=O)c1cc2c(cc1I)OCO2)Cc1cc(OC)c(OC)c(OC)c1I (stereo unspecified),> 100 µM,
O=C(O)Cc1c[nH]c2ccc(F)cc12,> 100 µM,
O=C1c2ccccc2-c2c1c1cc3c(cc1c(=O)n2CCCCl)OCO3,> 100 µM,19.2
NC1(CCCCCCCCCCC(=O)O)CNCCNCCNCCNC1,> 100 µM,
C#CC(C)(C)Oc1cc(O)c2c(=O)c3ccccc3n(C)c2c1,> 100 µM,
COc1ccc(CNC(=O)COc2ccc(/C=N/Nc3nc4ccccc4s3)cc2)cc1,> 100 µM,4.35
CCCCn1/c(=N/C(=S)N(C)C)ss/c1=N\C(=S)N(C)C,> 100 µM,
CN(C)CCNc1nc2ccccc2c2[nH]c3ccccc3c12,6.44 µM,1.98
CNC(=O)c1cc(Oc2ccc3c(c2)sc2nc(-c4ccc(N)cc4)cn23)ccn1,> 100 µM,4.99
Clc1cccc(NC=Nc2ccc(-c3nc4ccccc4s3)cc2)c1,18.4 µM,0.143
CCC1CCC2CCCC(C)N12 (stereo unspecified),> 100 µM,
O=C(O)CCCc1ccc(N(CCCl)CCCl)cc1,42.1 µM and 267 µM,21.5
CC1CCC[P+](Cc2ccccc2)(c2ccccc2)CC1 (stereo unspecified),> 100 µM,

# Tested on: OVCAR-4 ovarian
# Assay: NCI anticancer screen, dose series, 48 h
SMILES,TGI,GI50
O=C1CC[C@H]2CNC(=O)C[C@H]2C1,> 100 µM,
O=C(O)/C=C/C(=O)Nc1ncn[nH]1,> 100 µM,
Cc1cccc2c3ccc4c(c3n(C)c12)C(=O)C=CC4=O,> 100 µM,
COc1ccc(N=Cc2cc(OC)c(OC)c(OC)c2)cc1,> 100 µM,
CN(C)CCNC(=O)c1cccc2nc3c(Cl)cccc3nc12,27.6 µM,
COc1nc2c(cc1S(=O)(=O)c1ccccc1)CCc1c-2cnn1-c1ccccc1Cl,> 100 µM,7.3 µM
C[C@]12CCC(=O)C=C1CC[C@@H]1C2CC[C@]2(C)NC(=O)C(C#N)CC12 (stereo partly specified),> 100 µM,
O=S(=O)(O)C(O)/C=C/c1ccccc1 (stereo unspecified),> 100 µM,
C/C(=N\NC(N)=S)c1ccc(C)cc1C,> 100 µM,
CC1=CCCC(OC(N)=O)C1 (stereo unspecified),> 100 µM,
COc1cc2c(cc1O)[C@H](Cc1ccc(Oc3cc(C[C@H]4c5cc(OC)c(OC)cc5CCN4C)ccc3OC)cc1)NCC2,27.1 µM,
Cc1c(C(=O)/C=C/c2cccc3ccccc23)[n+](=O)c2ccccc2n1[O-],15.7 µM,
CC1=C[C@@H]2Cc3occc3C(C)(C)[C@@H]2CC1,84.4 µM,
CCCCCCCCCCCCCCC1OC(=O)c2ccccc21 (stereo unspecified),> 100 µM,
COC(=O)c1c(OC)cccc1C(=O)O,> 100 µM,
O=C(O)Cc1c[nH]c2ccc(F)cc12,> 100 µM,
O=C1c2ccccc2-c2c1c1cc3c(cc1c(=O)n2CCCCl)OCO3,> 100 µM,> 100 µM
NC1(CCCCCCCCCCC(=O)O)CNCCNCCNCCNC1,> 100 µM,
C#CC(C)(C)Oc1cc(O)c2c(=O)c3ccccc3n(C)c2c1,> 100 µM,
COc1ccc(CNC(=O)COc2ccc(/C=N/Nc3nc4ccccc4s3)cc2)cc1,5 µM,1.56 µM
CCCCn1/c(=N/C(=S)N(C)C)ss/c1=N\C(=S)N(C)C,> 100 µM,
CNC(=O)c1cc(Oc2ccc3c(c2)sc2nc(-c4ccc(N)cc4)cn23)ccn1,> 100 µM,2.49 µM
CCC1CCC2CCCC(C)N12 (stereo unspecified),> 100 µM,
O=C(O)CCCc1ccc(N(CCCl)CCCl)cc1,43.5 µM and 327 µM and 284 µM,24.7 µM and 185 µM
CC1CCC[P+](Cc2ccccc2)(c2ccccc2)CC1 (stereo unspecified),90.4 µM,

# Tested on: SF-268 CNS
# Assay: NCI anticancer screen, dose series, 48 h
SMILES,TGI [µM],GI50 [µM]
O=C1CC[C@H]2CNC(=O)C[C@H]2C1,> 100,
O=[N+]([O-])c1ccc(NSc2ccccc2)cc1,> 100,
CCCNC(=O)OCc1c(COC(=O)NCCC)c(-c2ccc(Cl)c(Cl)c2)n2c1CCC2,21.5,
O=C(O)/C=C/C(=O)Nc1ncn[nH]1,> 100,
Cc1cccc2c3ccc4c(c3n(C)c12)C(=O)C=CC4=O,> 100,
COc1ccc(N=Cc2cc(OC)c(OC)c(OC)c2)cc1,> 100,
COc1nc2c(cc1S(=O)(=O)c1ccccc1)CCc1c-2cnn1-c1ccccc1Cl,> 100,17
O=S(=O)(O)C(O)/C=C/c1ccccc1 (stereo unspecified),> 100,
OCc1c(-c2cccc3ccccc23)sc(-c2cccc3ccccc23)c1CO,26.9,
CC1=CCCC(OC(N)=O)C1 (stereo unspecified),> 100,
COc1cc2c(cc1O)[C@H](Cc1ccc(Oc3cc(C[C@H]4c5cc(OC)c(OC)cc5CCN4C)ccc3OC)cc1)NCC2,23.7,
Cc1c(C(=O)/C=C/c2cccc3ccccc23)[n+](=O)c2ccccc2n1[O-],29.3,
Cc1nc2nnc(C)n2c2c1C(=O)Nc1ccccc1N2,> 100,
CC1=C[C@@H]2Cc3occc3C(C)(C)[C@@H]2CC1,38.3,
CCCCCCCCCCCCCCC1OC(=O)c2ccccc21 (stereo unspecified),> 100,
COC(=O)C(CC(=O)c1cc2c(cc1I)OCO2)Cc1cc(OC)c(OC)c(OC)c1I (stereo unspecified),> 100,
COC(=O)c1c(OC)cccc1C(=O)O,> 100,
O=C1c2ccccc2-c2c1c1cc3c(cc1c(=O)n2CCCCl)OCO3,> 100,51.7
NC1(CCCCCCCCCCC(=O)O)CNCCNCCNCCNC1,> 100,
C#CC(C)(C)Oc1cc(O)c2c(=O)c3ccccc3n(C)c2c1,> 100,
COc1ccc(CNC(=O)COc2ccc(/C=N/Nc3nc4ccccc4s3)cc2)cc1,12.2,3.04
CCCCn1/c(=N/C(=S)N(C)C)ss/c1=N\C(=S)N(C)C,> 100,
CN(C)CCNc1nc2ccccc2c2[nH]c3ccccc3c12,1.82,0.293
CNC(=O)c1cc(Oc2ccc3c(c2)sc2nc(-c4ccc(N)cc4)cn23)ccn1,> 100,0.791
